Reference: patent US5698516A, “Biologically active vasopressin analogues” (Ferring B.V., priority 1993, dated 1997)
Read-outs that look alike come from different tables or passages of the source. Numbered stars: 1 amine (or outer) side, 2 acyl side, 3 side chain; on linkers, the order of the positions; unused ones are H or OH. Bridge positions count the residues as written; N and C are the ends. Square brackets hold non-standard residues; d marks the D form. Peptide text beside a SMILES is read from it. Hyp = O=C(O)[C@@H]1C[C@@H](O)CN1; 2Thi = N[C@@H](Cc1cccs1)C(=O)O; d2Thi = N[C@H](Cc1cccs1)C(=O)O; Iva = CC[C@](C)(N)C(=O)O; X1 = O=C(CCC[*:2])[*:1]

Key:
[1] = Gastrointestinal absorption of peptides (FAD)V, intestinal vs intravenous antidiuretic effect; settings: rat, intestinal administration via tube 10 cm distal of pylorus; antidiuretic effect AUC vs intravenous
Method: (§1) b) Gastrointestinal absorption of peptides [(FAD)V ]
(§2) Absorption of peptides administered in the intestine through a surgically introduced plastic tube (10 cm distal of pylorus) was determined by comparing the antidiuretic effect (area under curve) after intestinal administration with the antidiuretic effect after intravenous adminstration.

[2] = Intranasal absorption of peptides (FAD)in, intranasal vs intravenous antidiuretic effect; settings: rat, 30 μl in nasal cavity; antidiuretic effect AUC vs intravenous
Method: (§3) c) Intranasal absorption of peptides (FAD)in
(§4) Absorption of peptides administered in a volume of 30 μl in the nasal cavity through a PE20 cannula attached to a Hamilton syringe (introduced 10 mm without surgery), was determined by comparing the antidiuretic effect (area under curve) after intranasal administration with the antidiuretic effect after intravenous administration.

[3] = rat, in vivo
Method: as §1, §2

[4] = in vivo; cited from earlier work
rat = assay: Antidiuretic activity (ADiv), rat model, urine conductivity after intravenous challenge; type: in vivo; settings: conductivity of urine
Method: a) Antidiuretic activity (ADiv)
The antidiuretic activity of the peptides was determined in the well established rat model which is based on continuous measurement of the conductivity of the urine produced by the rat after an intravenous challenge with peptide (J. Medicinal Chem. (1978), 21, 352-356).

[5] = rat, in vivo; remark: listed apart in the source
Method: as §3, §4

| (FAD)V (gastrointestinal absorption) [1] [%] | (FAD)in (intranasal absorption) [2] [%] | (FAD)V (gastrointestinal absorption) [3] [%] | (FAD)in (intranasal absorption) [5] [%] | Compound | decrease of bioavailability by intranasal route [4] | ADiv (antidiuretic activity) (rat) [IU/μmol] |
| --- | --- | --- | --- | --- | --- | --- |
| 2.5 | 22 | – | – | CC[C@]1(C)NC(=O)[C@H](Cc2cccs2)NC(=O)[C@@H](Cc2cccs2)NC(=O)CCCSC[C@@H](C(=O)N2C[C@H](O)C[C@H]2C(=O)N[C@H](CCCNC(=N)N)C(=O)NCC(N)=O)NC(=O)[C@H](CC(N)=O)NC1=O [Ex. 4] ([d2Thi][2Thi][Iva]NC[Hyp][dR]G-NH2; linker N-5 via X1) | – | – |
| 1.4 | 17 | – | – | CC[C@]1(C)NC(=O)[C@H](Cc2cccs2)NC(=O)[C@@H](Cc2ccc(O)cc2)NC(=O)CCCSC[C@@H](C(=O)N2C[C@H](O)C[C@H]2C(=O)N[C@H](CCCNC(=N)N)C(=O)NCC(N)=O)NC(=O)[C@H](CC(N)=O)NC1=O [Ex. 5] ([dY][2Thi][Iva]NC[Hyp][dR]G-NH2; linker N-5 via X1) | – | – |
| 1.3 | 42 | – | – | CC[C@]1(C)NC(=O)[C@H](Cc2cccs2)NC(=O)[C@@H](Cc2ccccc2)NC(=O)CCCSC[C@@H](C(=O)N2C[C@H](O)C[C@H]2C(=O)N[C@H](CCCNC(=N)N)C(=O)NCC(N)=O)NC(=O)[C@H](CC(N)=O)NC1=O [Ex. 1] ([dF][2Thi][Iva]NC[Hyp][dR]G-NH2; linker N-5 via X1) | – | – |

The remaining lines, values behind:

| Compound | (FAD)V (gastrointestinal absorption) [1] [%] | (FAD)in (intranasal absorption) [2] [%] | (FAD)V (gastrointestinal absorption) [3] [%] | (FAD)in (intranasal absorption) [5] [%] | decrease of bioavailability by intranasal route [4] | ADiv (antidiuretic activity) (rat) [IU/μmol] |
| --- | --- | --- | --- | --- | --- | --- |
| CSCC[C@@H]1NC(=O)[C@@H](Cc2cccs2)NC(=O)CCCSC[C@@H](C(=O)N2C[C@H](O)C[C@H]2C(=O)N[C@H](CCCNC(=N)N)C(=O)NCC(N)=O)NC(=O)[C@H](CC(N)=O)NC(=O)[C@H](C(C)C)NC1=O [Ex. 6] ([d2Thi]MVNC[Hyp][dR]G-NH2; linker N-5 via X1) | 1.6 | 22 | – | – | – | – |
| CC(C)[C@@H]1NC(=O)[C@H](Cc2ccccc2)NC(=O)[C@@H](Cc2ccc(O)cc2)NC(=O)CCCSC[C@@H](C(=O)N2CCC[C@H]2C(=O)N[C@H](CCCNC(=N)N)C(=O)NCC(N)=O)NC(=O)[C@H](CC(N)=O)NC1=O [Ex. 3, reference compound] ([dY]FVNCP[dR]G-NH2; linker N-5 via X1) | 0.4 | 5 | – | – | – | – |
| CC(C)[C@@H]1NC(=O)[C@H](Cc2cccs2)NC(=O)[C@@H](Cc2ccccc2)NC(=O)CCCSC[C@@H](C(=O)N2C[C@H](O)C[C@H]2C(=O)N[C@H](CCCNC(=N)N)C(=O)NCC(N)=O)NC(=O)[C@H](CC(N)=O)NC1=O [Ex. 2] ([dF][2Thi]VNC[Hyp][dR]G-NH2; linker N-5 via X1) | 1.2 | 20 | – | – | – | – |
| NC(=O)CC[C@@H]1NC(=O)[C@H](Cc2ccccc2)NC(=O)[C@H](Cc2ccc(O)cc2)NC(=O)CCSSC[C@@H](C(=O)N2CCC[C@H]2C(=O)N[C@H](CCCN=C(N)N)C(=O)NCC(N)=O)NC(=O)[C@H](CC(N)=O)NC1=O [DDAVP, 1-desamino-8-D-arginine vasopressin] | – | – | 0.09 | 8 | about 10 times | 1100 |
